Assays:
Fusarium oxysporum = experiment: In vitro control of Fusarium oxysporum on PDA medium; type: cell-based; conditions: Fusarium oxysporum from potato, dose 1 L/400 L water, 28-30° C., dark, 7 days
Protocol: A strain of Fusarium oxysporum isolated from potato was cultivated in a solid potato dextrose agar (PDA) medium. The efficacy of the mixture of kasugamycin and laminarin in a 1:1 ratio, and each component individually was tested.
(§1) The in vitro assessment of the products effectiveness was carried out as per the treatments discussed in Table 2. Accordingly, the components in each treatment were dissolved in the PDA culture medium at the dose indicated above. The mixture was homogenized and poured into sterile petri dishes. Explants of 5 mm diameter of the fungus strain Fusarium oxysporum were placed on the petri dishes with PDA. The dishes were incubated inverted, in dark conditions at a temperature of 28-30° C. The evaluation of the inhibition of the fungus was carried out 7 days later.
This effectiveness of all treatments as measured by percent reduction in the Fusarium oxysporum growth, was also evaluated according to Colby's equation as below. […]
If the actual/observed anti-phytopathogenic efficacy of the kasugamycin and laminarin combination against Fusarium oxysporum exceeds the calculated value, then the activity of the combination is super additive, i.e. a synergistic effect exists. In this case, the efficacy which was actually observed must be greater than the value for the expected efficacy (E) calculated from the abovementioned formula.

Alternaria alternata = experiment: In vitro control of Alternaria alternata on PDA medium; type: cell-based; conditions: Alternaria alternata from potato, dose 1 L/400 L water, 28-30° C., dark, 7 days
Protocol: A strain of Alternaria alternata isolated from potato was cultivated in a solid potato dextrose agar (PDA) medium. The efficacy of the mixture of kasugamycin and laminarin in a 1:1 ratio, and each component individually was tested.
as §1, with “4.” for “2.”, “in” for “in the”, “Alternaria alternata” for “the fungus strain Fusarium oxysporum”, “inverted” for “inverted,”
The present inventors have calculated the Colby value of the synergistic combination as discussed in Example 4 above.

Row | Molecule | % Observed control (Fusarium oxysporum) [%] | % Observed control (Alternaria alternata) [%]
1 | C[C@H]1O[C@H](O[C@H]2[C@H](O)[C@@H](O)[C@@H](O)[C@H](O)[C@@H]2O)[C@@H](N)C[C@@H]1NC(=N)C(=O)O [Kasugamycin] | 48 | 54
2 | Laminarin | 11 | 30

Reference: patent US12685313B2, “Agricultural composition comprising kasugamycin” (UPL Corporation Limited, priority 2021, dated 2026)
